The conditions of data set [1]: octanol/water.
The next data set in a line: physchem. The conditions noted are these: octanol/water.

Broadly, the logP is the decadic logarithm of the partition coefficient of the neutral form, usually between octanol and water. Read a high logP as higher lipophilicity.

For the molecule `N#Cc1cccc(O)c1`, the “Log k' w” value in data set [1] is given as 1.557. For the same molecule, in the data set “physchem”, the logP is 1.7. Regarding `COc1ccc(CO)cc1`, the “Log k' w” value in data set [1] was determined as 0.815. Moreover, the logP in “physchem” is 1.1. As for `COc1ccc(N)cc1`, the “Log k' w” value in data set [1] is given as 0.603. The same molecule yielded a logP in “physchem” of 0.95. The matching figures for `CC12CCC(C(=O)C1=O)C2(C)C` (centres undefined): 1.42 and 1.52. Turning to `Oc1cccc(Cl)c1`, the “Log k' w” value in data set [1] is given as 2.391.

For the molecule `Oc1ccc(F)cc1`, the “Log k' w” value in data set [1] is on record as 1.575. Regarding `Oc1ccc(I)cc1`, the “Log k' w” value in data set [1] stood at 2.795.

Take `O=[N+]([O-])c1ccc(Cl)cc1`: the “Log k' w” value in data set [1] turned out to be 2.165. For the same molecule, the logP in “physchem” came to 2.3. The matching figures for `N#Cc1cccc([N+](=O)[O-])c1`: 1.014 and 1.17. For the molecule `Oc1cccc(F)c1`, the “Log k' w” value in data set [1] worked out at 1.749. Turning to `Nc1cccc2ccccc12`, the “Log k' w” value in data set [1] was determined as 2.203. For the molecule `COc1ccc([N+](=O)[O-])cc1`, the “Log k' w” value in data set [1] was found to be 1.857. The same measure, in the same setting: for `Oc1cccc(C(F)(F)F)c1` the value was 2.847.

As for `CCc1cccc(O)c1`, the “Log k' w” value in data set [1] was 2.228. For the same molecule, the logP in the data set “physchem” was 2.4.

For `Cc1ccc(N)cc1`, the “Log k' w” value in data set [1] amounted to 1.405. `Nc1cccc(F)c1`: in data set [1], the “Log k' w” value is recorded as 1.225. In the data set “physchem”, this molecule had a logP of 1.3. Turning to `CC(=O)Nc1ccc(Br)cc1`, the “Log k' w” value in data set [1] is 2.293. The logP in the data set “physchem” amounted to 2.29. In the case of `COc1cccc(O)c1` [1-hydroxy-3-methoxybenzene], the “Log k' w” value in data set [1] is on record as 1.254. On the same count and under the same terms, as for `Nc1ccc(Br)cc1` [4-BROMOANILINE], the figure is 2.043.

On to `Nc1ccc(Cl)cc1` [4-CHLOROANILINE], for which the “Log k' w” value in data set [1] is listed as 1.855. In “physchem”, this molecule showed a logP of 1.83.

Regarding `CC(=O)c1ccccc1` [ACETOPHENONE], in data set [1], the “Log k' w” value amounted to 1.359. Take `COc1ccccc1` [ANISOLE]: in data set [1], the “Log k' w” value amounted to 2.006. For the molecule `c1ccc(/N=N/c2ccccc2)cc1` [AZOBENZENE], the “Log k' w” value in data set [1] is listed as 3.961. Moreover, the logP in the data set “physchem” came to 3.82. With `N#Cc1ccccc1` [BENZONITRILE], the “Log k' w” value in data set [1] stood at 1.279. Turning to `c1ccc2[nH]ccc2c1` [INDOLE], the “Log k' w” value in data set [1] is 2.014. The logP in “physchem” is 2.14.

Consider `COc1ccc(O)cc1` [MEQUINOL], for which, in data set [1], the “Log k' w” value turned out to be 1.004.

As to `O=[N+]([O-])c1ccccc1` [NITROBENZENE], the “Log k' w” value in data set [1] turned out to be 1.633.

Take `Oc1ccc(Cl)cc1` [PARACHLOROPHENOL]: in data set [1], the “Log k' w” value was determined as 2.31. Consider `Oc1ccccc1` [PHENOL], for which the “Log k' w” value in data set [1] was found to be 1.251. On the same count and under the same terms, as for `Oc1cccc(O)c1` [RESORCINOL], the figure is 0.544; as for `Cc1ccc(C(C)C)c(O)c1` [THYMOL], 3.092; as for `Cc1ccc(O)cc1` [p-CRESOL], 1.759.
